≈ marks a conversion by molar mass, not a printed value. Read-outs that look alike come from different tables or passages of the source.
Columns and labels:
Clostridium difficile = assay: Broth microdilution MIC against Clostridium difficile strains; format: cell-based; details: Clostridioides difficile
Experimental: The broth microdilution assay was utilized following the Clinical and Laboratory Standards Institute (CLSI) guidelines with slight modifications. Briefly, C. difficile strains were grown on anaerobic blood agar plates (Becton Dickinson, BD) and suspended in brain heart infusion supplemented broth (Brain heart infusion medium, BD, supplemented with yeast extract, L-cysteine, Vitamin K1 and Hemin, Sigma) to achieve a bacterial concentration of ~10^5 CFU/ml. The bacterial suspension was seeded in 96-well plates containing drugs/compounds, in duplicate, at the required concentration. Plates were then incubated at 37 °C anaerobically for 48 hours. MICs reported are the lowest concentration of each agent that inhibited the visual growth of bacteria.

E. faecalis = assay: Broth microdilution MIC against E. faecalis strains; format: cell-based; details: Enterococcus faecalis, read-out: Minimum inhibitory concentration
E. faecium = assay: Broth microdilution MIC against E. faecium strains; format: cell-based; details: Enterococcus faecium, read-out: Minimum inhibitory concentration
[1] = tested on: human ileocecal colorectal adenocarcinoma cell line (HRT-18); assay: Cytotoxicity, MTS assay, HRT-18 cells; format: cell-based; details: 32 µg mL^−1, 2 hours
Experimental: Briefly, ~2 × 10^4 cells suspended in 100 µL of RPMI-1640 supplemented with 10% horse serum were seeded in a 96-well plate and incubated at 37 °C with 5% CO2. The cells were cultured for 24 hours until reaching ~90% confluency. The cells were further incubated with the aforementioned concentrations of the compounds for 2 hours. Afterwards, culture media were discarded and the cells in each well were washed with PBS and 100 µL of cell culture media were added prior to addition of the assay reagent MTS 3-(4,5-dimethylthiazol-2-yl)-5-(3-carboxymethoxyphenyl)-2-(4-sulfophenyl)-2H-tetrazolium) (Promega). The plates were incubated for 4 hours at 37 °C in a humidified 5% CO2 atmosphere. The absorbance was recorded at 490 nm and the corrected absorbance readings (actual absorbance readings for each treatment subtracted from background absorbance) were taken using a kinetic ELISA microplate reader (SpectraMax i3x, Molecular Devices, Sunnyvale, CA, USA). The quantity of viable cells after treatment with each compound was expressed as a percentage of the control, DMSO. Asterisk (*) denotes a significant difference from the DMSO-treated cells using 2-way analysis of variance (ANOVA) followed by Dunnett’s pairwise comparison.

[2] = tested on: vancomycin-resistant and vancomycin-susceptible strains of Enterococcus; assay: Broth microdilution MIC against Enterococcus strains (E. faecalis and E. faecium, summary in text); format: cell-based; details: all E. faecalis and E. faecium strains tested, vancomycin-resistant and -sensitive
[3] = Caco-2 bidirectional permeability assay; format: in vitro ADME, human; details: human, Caco-2; for efflux ratio at 2 h: Re = (Papp B→A)/(Papp A→B); for Papp A→B at 2 h: apical (pH 6.5) to basolateral (pH 7.4); for Papp A→B at 2 h / Papp B→A at 2 h: two hours; for Papp B→A at 2 h: basolateral to apical
Experimental: The Caco-2 bidirectional permeability assay was conducted as described in previous reports[29],[30],[41],[42]. The Caco-2 cell line is similar to human enterocytes and expresses P-glycoprotein and other relevant metabolic enzymes that affect absorption of orally-administered xenobiotics across the intestinal mucosa[34],[43],[44]. Caco-2 cells were grown in tissue culture flasks, trypsinized (by rinsing cells with phosphate-buffered saline and then treating with trypsin-EDTA for 5–10 minutes at 37 °C with 5% CO2 until cells detached), suspended in Dulbecco’s Modified Eagle Medium with 10% fetal bovine serum, 1% nonessential amino acids and penicillin-streptomycin, and then seeded onto wells of a Millipore 96-well Caco-2 plate. Cells were cultured at 37 °C with 5% CO2 until confluent (approximately three weeks) and media was changed at relevant time points. For Apical to Basolateral (A → B) permeability, the test article was added to the apical (A) compartment and the amount of permeation (Papp, as calculated below) to the basolateral (B) compartment was determined; for Basolateral to Apical (B → A) permeability, the test article was added to the B compartment and the amount of permeation to the A compartment was determined. […] Caco-2 cells were incubated with these buffers for two hours, and the receiver side buffer was removed for analysis by LC/MS/MS. To verify the tight junctions and integrity of Caco-2 cell monolayers, aliquots of the cell buffers were analyzed by fluorescence (Lucifer yellow transport ≤ 2%). Any deviations from control values are reported. Data are expressed as permeability (Papp) = (dQ/dt)/(C0A) where dQ/dt is the rate of permeation, C0 is the initial concentration of test agent, and A is the area of the monolayer.

[4] = C. difficile Isolate 1 (NR-13427), read-out: Minimum inhibitory concentration
[5] = C. difficile Isolate 2 (NR-13428), read-out: Minimum inhibitory concentration
[6] = C. difficile Isolate 4 (NR-13430), read-out: Minimum inhibitory concentration
[7] = C. difficile Isolate 5 (NR-13431), read-out: Minimum inhibitory concentration
[8] = C. difficile Isolate 6 (NR-13432), read-out: Minimum inhibitory concentration
[9] = C. difficile Isolate 9 (NR-13435), read-out: Minimum inhibitory concentration
[10] = C. difficile Isolate 10 (NR-13436), read-out: Minimum inhibitory concentration
[11] = C. difficile P2 (NR-32883), read-out: Minimum inhibitory concentration
[12] = C. difficile P4 (NR-32889), read-out: Minimum inhibitory concentration
[13] = C. difficile P8 (NR-32888), read-out: Minimum inhibitory concentration
[14] = C. difficile P13 (NR-32891), read-out: Minimum inhibitory concentration
[15] = C. difficile P15 (NR-32892), read-out: Minimum inhibitory concentration
[16] = C. difficile P20 (NR-32896), read-out: Minimum inhibitory concentration
[17] = C. difficile P21 (NR-32897), read-out: Minimum inhibitory concentration
[18] = C. difficile P29 (NR-32903), read-out: Minimum inhibitory concentration
[19] = C. difficile strains P8, P13 and Isolate 10
[20] = across all tested strains of C. difficile
[21] = E. faecalis SF28073 (vancomycin-resistant)
[22] = E. faecium E417 (vancomycin-resistant)

SMILES	MIC (Clostridium difficile; [4]) [µg/mL]	MIC (Clostridium difficile; [5]) [µg/mL]	MIC (Clostridium difficile; [6]) [µg/mL]	MIC (Clostridium difficile; [7]) [µg/mL]	MIC (Clostridium difficile; [8]) [µg/mL]	MIC (Clostridium difficile; [9]) [µg/mL]	MIC (Clostridium difficile; [10]) [µg/mL]	MIC (Clostridium difficile; [11]) [µg/mL]	MIC (Clostridium difficile; [12]) [µg/mL]	MIC (Clostridium difficile; [13]) [µg/mL]	MIC (Clostridium difficile; [14]) [µg/mL]	MIC (Clostridium difficile; [15]) [µg/mL]	MIC (Clostridium difficile; [16]) [µg/mL]	MIC (Clostridium difficile; [17]) [µg/mL]	MIC (Clostridium difficile; [18]) [µg/mL]	MIC (Clostridium difficile; [20]) [µg/mL]	MIC (E. faecalis; E. faecalis B3196) [µg/mL]	MIC (E. faecalis; E. faecalis B3286) [µg/mL]	MIC (E. faecalis; E. faecalis B3336) [µg/mL]	MIC (E. faecalis; E. faecalis SF24397) [µg/mL]	other results
Cc1ncc([N+](=O)[O-])n1CCO [Metronidazole, reference compound]	0.25 (≈ 1.46 µM)	0.0625 (≈ 0.365 µM)	0.5 (≈ 2.92 µM)	0.25 (≈ 1.46 µM)	0.125 (≈ 0.73 µM)	0.0625 (≈ 0.365 µM)	0.125 (≈ 0.73 µM)	0.0625 (≈ 0.365 µM)	0.125 (≈ 0.73 µM)	0.125 (≈ 0.73 µM)	0.25 (≈ 1.46 µM)	0.0625 (≈ 0.365 µM)	0.25 (≈ 1.46 µM)	0.125 (≈ 0.73 µM)	0.0625 (≈ 0.365 µM)						MIC (Clostridium difficile; [19]): < 0.25 µg/mL
CCCCCCN(Cc1cccc2ccccc12)C(=O)[C@@H](N)CCCCN [NCK-6]	64 (≈ 173 µM)	64 (≈ 173 µM)	64 (≈ 173 µM)	32 (≈ 86.6 µM)	64 (≈ 173 µM)	32 (≈ 86.6 µM)	64 (≈ 173 µM)	64 (≈ 173 µM)	64 (≈ 173 µM)	64 (≈ 173 µM)	64 (≈ 173 µM)	64 (≈ 173 µM)	64 (≈ 173 µM)	32 (≈ 86.6 µM)	32 (≈ 86.6 µM)	32 (≈ 86.6 µM)	128 (≈ 346 µM)	128 (≈ 346 µM)	128 (≈ 346 µM)	128 (≈ 346 µM)	MIC (E. faecalis; [21]): 128 µg/mL (≈ 346 µM); MIC (E. faecium; [22]): 64 µg/mL (≈ 173 µM); MIC (E. faecium; E. faecium E1071): 128 µg/mL (≈ 346 µM); MIC (E. faecium; E. faecium UAA714): 128 µg/mL (≈ 346 µM); toxicity to HRT-18 cells [1]: survived; MIC [2]: 64 to 128 µg/mL (≈ 173 to 346 µM)
CCCCCCCCN(Cc1cccc2ccccc12)C(=O)[C@@H](N)CCCCN [NCK-8]	8 (≈ 20.1 µM)	8 (≈ 20.1 µM)	8 (≈ 20.1 µM)	2 (≈ 5.03 µM)	8 (≈ 20.1 µM)	4 (≈ 10.1 µM)	8 (≈ 20.1 µM)	4 (≈ 10.1 µM)	8 (≈ 20.1 µM)	8 (≈ 20.1 µM)	8 (≈ 20.1 µM)	8 (≈ 20.1 µM)	8 (≈ 20.1 µM)	4 (≈ 10.1 µM)	8 (≈ 20.1 µM)	2 to 8 (≈ 5.03 to 20.1 µM)	16 (≈ 40.2 µM)	32 (≈ 80.5 µM)	16 (≈ 40.2 µM)	16 (≈ 40.2 µM)	MIC (E. faecalis; [21]): 16 µg/mL (≈ 40.2 µM); MIC (E. faecium; [22]): 8 µg/mL (≈ 20.1 µM); MIC (E. faecium; E. faecium E1071): 16 µg/mL (≈ 40.2 µM); MIC (E. faecium; E. faecium UAA714): 16 µg/mL (≈ 40.2 µM); toxicity to HRT-18 cells [1]: survived; MIC [2]: 8 to 32 µg/mL (≈ 20.1 to 80.5 µM)
CCCCCCCCCCCCN(Cc1cccc2ccccc12)C(=O)[C@@H](N)CCCCN [NCK-12]	4 (≈ 8.82 µM)	2 (≈ 4.41 µM)	2 (≈ 4.41 µM)	1 (≈ 2.2 µM)	2 (≈ 4.41 µM)	2 (≈ 4.41 µM)	2 (≈ 4.41 µM)	1 (≈ 2.2 µM)	4 (≈ 8.82 µM)	4 (≈ 8.82 µM)	2 (≈ 4.41 µM)	2 (≈ 4.41 µM)	2 (≈ 4.41 µM)	2 (≈ 4.41 µM)	2 (≈ 4.41 µM)	1 to 4 (≈ 2.2 to 8.82 µM)	4 (≈ 8.82 µM)	8 (≈ 17.6 µM)	8 (≈ 17.6 µM)	8 (≈ 17.6 µM)	MIC (E. faecalis; [21]): 4 µg/mL (≈ 8.82 µM); MIC (E. faecium; [22]): 4 µg/mL (≈ 8.82 µM); MIC (E. faecium; E. faecium E1071): 8 µg/mL (≈ 17.6 µM); MIC (E. faecium; E. faecium UAA714): 8 µg/mL (≈ 17.6 µM); toxicity to HRT-18 cells [1]: survived; MIC [2]: 4 to 8 µg/mL (≈ 8.82 to 17.6 µM)
CNC(=C[N+](=O)[O-])NCCSCc1ccc(CN(C)C)o1 [Ranitidine]																					efflux ratio at 2 h [3]: 5.18; Papp A→B at 2 h [3]: 0.186 ×10⁻⁶ cm/s; Papp B→A at 2 h [3]: 0.942 ×10⁻⁶ cm/s
CN[C@H](CC(C)C)C(=O)N[C@H]1C(=O)N[C@@H](CC(N)=O)C(=O)N[C@H]2C(=O)N[C@H]3C(=O)N[C@H](C(=O)N[C@H](C(=O)O)c4cc(O)cc(O)c4-c4cc3ccc4O)[C@H](O)c3ccc(c(Cl)c3)Oc3cc2cc(c3O[C@@H]2O[C@H](CO)[C@@H](O)[C@H](O)[C@H]2O[C@H]2C[C@](C)(N)[C@H](O)[C@H](C)O2)Oc2ccc(cc2Cl)[C@H]1O [Vancomycin, reference compound]																					MIC (Clostridium difficile; [19]): 0.5 µg/mL (≈ 0.345 µM); MIC (Clostridium difficile; read-out: Minimum inhibitory concentration, C. difficile Isolate 1 (NR-13427)): 1 µg/mL (≈ 0.69 µM); MIC (Clostridium difficile; read-out: Minimum inhibitory concentration, C. difficile Isolate 2 (NR-13428)): 1 µg/mL (≈ 0.69 µM); MIC (Clostridium difficile; read-out: Minimum inhibitory concentration, C. difficile Isolate 4 (NR-13430)): 0.5 µg/mL (≈ 0.345 µM); MIC (Clostridium difficile; read-out: Minimum inhibitory concentration, C. difficile Isolate 5 (NR-13431)): 0.5 µg/mL (≈ 0.345 µM); MIC (Clostridium difficile; read-out: Minimum inhibitory concentration, C. difficile Isolate 6 (NR-13432)): 0.5 µg/mL (≈ 0.345 µM); MIC (Clostridium difficile; read-out: Minimum inhibitory concentration, C. difficile Isolate 9 (NR-13435)): 0.5 µg/mL (≈ 0.345 µM); MIC (Clostridium difficile; read-out: Minimum inhibitory concentration, C. difficile Isolate 10 (NR-13436)): 0.5 µg/mL (≈ 0.345 µM); MIC (Clostridium difficile; read-out: Minimum inhibitory concentration, C. difficile P2 (NR-32883)): 0.5 µg/mL (≈ 0.345 µM); MIC (Clostridium difficile; read-out: Minimum inhibitory concentration, C. difficile P4 (NR-32889)): 2 µg/mL (≈ 1.38 µM); MIC (Clostridium difficile; read-out: Minimum inhibitory concentration, C. difficile P8 (NR-32888)): 0.5 µg/mL (≈ 0.345 µM); MIC (Clostridium difficile; read-out: Minimum inhibitory concentration, C. difficile P13 (NR-32891)): 0.5 µg/mL (≈ 0.345 µM); MIC (Clostridium difficile; read-out: Minimum inhibitory concentration, C. difficile P15 (NR-32892)): 0.5 µg/mL (≈ 0.345 µM); MIC (Clostridium difficile; read-out: Minimum inhibitory concentration, C. difficile P20 (NR-32896)): 1 µg/mL (≈ 0.69 µM); MIC (Clostridium difficile; read-out: Minimum inhibitory concentration, C. difficile P21 (NR-32897)): 0.5 µg/mL (≈ 0.345 µM); MIC (Clostridium difficile; read-out: Minimum inhibitory concentration, C. difficile P29 (NR-32903)): 0.5 µg/mL (≈ 0.345 µM); MIC (Clostridium difficile; the rest of the C. difficile strains): 0.5 to 1 µg/mL (≈ 0.345 to 0.69 µM); MIC (E. faecalis): 1 µg/mL (≈ 0.69 µM); MIC (E. faecium): > 128 µg/mL
CC(=O)CC(c1ccccc1)c1c(O)c2ccccc2oc1=O (centres unmarked) [Warfarin]																					efflux ratio at 2 h [3]: 1.54; Papp A→B at 2 h [3]: 12.7 ×10⁻⁶ cm/s; Papp B→A at 2 h [3]: 19.6 ×10⁻⁶ cm/s
